Experiments:
pigweed [1] = assay: Test A preemergence; assay type: in vivo, Amaranthus retroflexus; conditions: for Pigweed plant response rating (0 to 100 scale): visual injury approx. 10 days after treatment
In short: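 Scoring was visual, on a scale where 100 means complete control and 0 means no effect, comparing treated with untreated plants around 10 days post-application. Compounds in surfactant-containing non-phytotoxic solvent were sprayed onto soil preemergence or onto one- to two-leaf seedlings (2–10 cm) postemergence.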

barnyardgrass = assay: Test B flood; assay type: in vivo, Echinochloa crus-galli; conditions: 250 g ai/ha, visual rating on 0 to 100 scale (0 no effect, 100 complete control), 13 to 15 days
In short: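 Each compound is applied to the floodwater of pots holding 2-leaf seedlings, water standing 3 cm over the soil throughout. Plants stay in a greenhouse 13 to 15 days before visual scoring against controls from 0 (no effect) to 100 (complete control).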

foxtail, giant = assay: Test C preemergence; assay type: in vivo, Setaria faberii
In short: (§1)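 Visual control ratings on a 0–100 scale (100 = complete control) made against untreated controls after 13 to 15 days in greenhouse. Compounds applied in surfactant-containing solvent mixture, either preemergence to loam/sand-sown seeds or postemergence to 1- to 4-leaf plants (2–18 cm) in peat medium.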

pigweed [2] = assay: Test C preemergence; assay type: in vivo, Amaranthus retroflexus
In short: as §1

ragweed [3] = assay: Test C preemergence; assay type: in vivo, Ambrosia elation
Source text: (§2) Seeds of plant species selected from blackgrass (Alopecurus myosuroides), ryegrass, Italian (Italian ryegrass, Lolium multiflorum), wheat (winter wheat, Triticum aestivum), galium (catchweed bedstraw, Galium aparine), corn (Zea mays), crabgrass, large (large crabgrass, Digitaria sanguinalis), foxtail, giant (giant foxtail, Setaria faberii), johnsongrass (Sorghum halepense), lambsquarters (Chenopodium album), morningglory (Ipomoea coccinea), nutsedge, yellow (yellow nutsedge, Cyperus esculentus), pigweed (redroot pigweed, Amaranthus retroflexus), ragweed (common ragweed, Ambrosia elation), soybean (Glycine max), barnyardgrass (Echinochloa crus-galli), oilseed rape (Brassica napus), waterhemp (common waterhemp, Amaranthus rudis), oat, wild (wild oat, Avena fatua), kochia (Kochia scoparia), Surinam grass (Brachiaria decumbens), foxtail, green (green foxtail, Setaria viridis), goosegrass (Eleusine indica), bromegrass, downy (downy bromegrass, Bromus tectorum), nightshade (eastern black nightshade, Solanum ptycanthum), cocklebur (common cocklebur, Xanthium strumarium), cupgrass, woolly (woolly cupgrass, Eriochloa villosa), bermudagrass (Cynodon dactylon), sunflower, (common oilseed sunflower, Helianthus annuus), Russian thistle (Salsola kali), and velvetleaf (Abutilon theophrasti) were planted into a blend of loam soil and sand and treated preemergence with test chemicals formulated in a non-phytotoxic solvent mixture which included a surfactant.
(§3) At the same time, plants selected from these crop and weed species and also chickweed (common chickweed, Stellaria media), canarygrass (littleseed canarygrass, Phalaris minor), and deadnettle (henbit deadnettle, Lamium amplexicaule), were planted in pots containing Redi-Earth® planting medium (Scotts Company, 14111 Scottslawn Road, Marysville, Ohio 43041) comprising spaghnum peat moss, vermiculite, wetting agent and starter nutrients and treated with postemergence applications of test chemicals formulated in the same manner. Plants ranged in height from 2 to 18 cm (1- to 4-leaf stage) for postemergence treatments. Treated plants and controls were maintained in a greenhouse for 13 to 15 days, after which time all species were compared to controls and visually evaluated. Plant response ratings, summarized in Table C, are based on a scale of 0 to 100 where 0 is no effect and 100 is complete control. A dash (-) response means no test result.

oilseed rape [4] = assay: Test C preemergence; assay type: in vivo, Brassica napus
Source text: as §2, §3

nutsedge, yellow = assay: Test C postemergence; assay type: in vivo, Cyperus esculentus
Source text: as §2, §3

ragweed [5] = assay: Test C postemergence; assay type: in vivo, Ambrosia elation
In short: as §1

soybean = assay: Test C postemergence; assay type: in vivo, Glycine max
Source text: as §2, §3

oilseed rape [6] = assay: Test C postemergence; assay type: in vivo, Brassica napus
Source text: as §2, §3

oat, wild = assay: Test C postemergence; assay type: in vivo, Avena fatua
In short: as §1

kochia = assay: Test C postemergence; assay type: in vivo, Kochia scoparia
Source text: as §2, §3

[7] = preemergence, 500 g ai/ha, visual injury after approx. 10 days, 0 to 100 scale (0 no effect, 100 complete control)
[8] = preemergence, 31 g ai/ha, visual rating, scale 0 to 100 (0 no effect, 100 complete control), 13 to 15 days
[9] = preemergence, 62 g ai/ha, scale 0 to 100 (0 no effect, 100 complete control), 13 to 15 days
[10] = preemergence, 125 g ai/ha, 13 to 15 days, scale 0 to 100, 0 = no effect, 100 = complete control
[11] = preemergence, 250 g ai/ha, scale 0 to 100, 0 is no effect, 100 is complete control
[12] = preemergence, 125 g ai/ha, visual injury, 0 to 100 scale, approx. 10 days
[13] = preemergence, 31 g ai/ha, scale 0 to 100 (0 no effect, 100 complete control), 13 to 15 days
[14] = preemergence, 62 g ai/ha, 13 to 15 days, scale 0 to 100, 0 = no effect, 100 = complete control
[15] = preemergence, 125 g ai/ha, scale 0 to 100, 0 is no effect, 100 is complete control
[16] = Postemergence, 31 g ai/ha, visually evaluated after 13 to 15 days
[17] = postemergence, 62 g ai/ha, scale 0 to 100
[18] = postemergence, 250 g ai/ha, scale 0 to 100 (0 no effect, 100 complete control)
[19] = postemergence, 125 g ai/ha, scale 0 to 100, 0 no effect, 100 complete control
[20] = Preemergence, 4 g ai/ha, scale 0 to 100
[21] = Preemergence, 8 g ai/ha, scale 0 to 100
[22] = Preemergence, 16 g ai/ha, scale 0 to 100

## O=C(NCC(F)(F)F)c1cc(CCF)n(Cc2ccnc(C(F)(F)F)c2)n1 [Compound 175]
Pigweed [1]; preemergence, 125 g ai/ha
  Pigweed plant response rating (0 to 100 scale): 100
Pigweed [1]; [7]
  Pigweed plant response rating: 100
barnyardgrass
  Plant response rating, Barnyardgrass: 35
foxtail, giant; [8]
  Foxtail, Giant plant response rating: 75
foxtail, giant; [9]
  Foxtail, Giant plant response rating: 100
foxtail, giant; [10]
  Plant response rating, Foxtail, Giant: 100
foxtail, giant; [11]
  Foxtail, Giant plant response rating: 100
Pigweed [2]; [8]
  Pigweed plant response rating: 100
Pigweed [2]; [9]
  Pigweed plant response rating: 100
Pigweed [2]; [10]
  Plant response rating, Pigweed: 100
Pigweed [2]; [11]
  Pigweed plant response rating: 100
Ragweed [3]; [8]
  Ragweed plant response rating: 80
Ragweed [3]; [9]
  Ragweed plant response rating: 90
Ragweed [3]; [10]
  Plant response rating, Ragweed: 98
Ragweed [3]; [11]
  Ragweed plant response rating: 95
Oilseed rape [4]; [8]
  Oilseed Rape plant response rating: 98
Oilseed rape [4]; [9]
  Oilseed Rape plant response rating: 100
Oilseed rape [4]; [10]
  Plant response rating, Oilseed Rape: 100
Oilseed rape [4]; [11]
  Oilseed Rape plant response rating: 100

## CCc1cc(C(=O)NC2CC2)nn1Cc1ccnc(C(F)(F)F)c1 [Compound 76]
Pigweed [1]; Preemergence, 500 g ai/ha, 0 to 100 scale, 0 no effect, 100 complete control
  Pigweed plant response rating: 100
Pigweed [1]; [12]
  Pigweed plant response rating: 100
barnyardgrass
  Plant response rating, Barnyardgrass: 20
foxtail, giant; Preemergence, 250 g ai/ha
  Plant response rating (scale of 0 to 100), Foxtail, Giant: 100
foxtail, giant; [13]
  Foxtail, Giant plant response rating: 100
foxtail, giant; [14]
  Plant response rating, Foxtail, Giant: 100
foxtail, giant; [15]
  Foxtail, Giant plant response rating: 100
Pigweed [2]; Preemergence, 250 g ai/ha
  Plant response rating (scale of 0 to 100), Pigweed: 100
Pigweed [2]; [13]
  Pigweed plant response rating: 100
Pigweed [2]; [14]
  Plant response rating, Pigweed: 100
Pigweed [2]; [15]
  Pigweed plant response rating: 100
Ragweed [3]; Preemergence, 250 g ai/ha
  Plant response rating (scale of 0 to 100), Ragweed: 100
Ragweed [3]; [13]
  Ragweed plant response rating: 90
Ragweed [3]; [14]
  Plant response rating, Ragweed: 100
Ragweed [3]; [15]
  Ragweed plant response rating: 100
nutsedge, yellow; [16]
  Plant response rating (scale of 0 to 100 where 0 is no effect and 100 is complete control), Nutsedge, Yellow: 5
nutsedge, yellow; [17]
  Nutsedge, Yellow plant response rating: 5
nutsedge, yellow; [18]
  Plant response rating, Nutsedge, Yellow: 5
nutsedge, yellow; [19]
  Plant response rating, Nutsedge, Yellow: 5
Ragweed [5]; [16]
  Plant response rating (scale of 0 to 100 where 0 is no effect and 100 is complete control), Ragweed: 55
Ragweed [5]; [17]
  Ragweed plant response rating: 75
Ragweed [5]; [18]
  Plant response rating, Ragweed: 90
Ragweed [5]; [19]
  Plant response rating, Ragweed: 75
soybean; [16]
  Plant response rating (scale of 0 to 100 where 0 is no effect and 100 is complete control), Soybean: 65
soybean; [17]
  Soybean plant response rating: 75
soybean; [18]
  Plant response rating, Soybean: 98
soybean; [19]
  Plant response rating, Soybean: 95
Oilseed rape [6]; [16]
  Plant response rating (scale of 0 to 100 where 0 is no effect and 100 is complete control), Oilseed Rape: 30
Oilseed rape [6]; [17]
  Oilseed Rape plant response rating: 35
Oilseed rape [6]; [18]
  Plant response rating, Oilseed Rape: 60
Oilseed rape [6]; [19]
  Plant response rating, Oilseed Rape: 55
oat, wild; [16]
  Plant response rating (scale of 0 to 100 where 0 is no effect and 100 is complete control), Oat, Wild: 5
oat, wild; [17]
  Oat, Wild plant response rating: 5
oat, wild; [18]
  Plant response rating, Oat, Wild: 25
oat, wild; [19]
  Plant response rating, Oat, Wild: 5
kochia; [16]
  Plant response rating (scale of 0 to 100 where 0 is no effect and 100 is complete control), Kochia: 75
kochia; [17]
  Kochia plant response rating: 90
kochia; [18]
  Plant response rating, Kochia: 90
kochia; [19]
  Plant response rating, Kochia: 90

## CCOc1cc(C(=O)NCC(F)(F)F)nn1Cc1cc(C(F)(F)F)nn1C [Compound 140]
Pigweed [1]; [12]
  Pigweed plant response rating: 100
Pigweed [1]; [7]
  Pigweed plant response rating: 100
barnyardgrass
  Plant response rating, Barnyardgrass: 55
foxtail, giant; [20]
  Plant response rating, Foxtail, Giant: 20
foxtail, giant; [21]
  Plant response rating, Foxtail, Giant: 40
foxtail, giant; [22]
  Plant response rating, Foxtail, Giant: 75
foxtail, giant; [8]
  Foxtail, Giant plant response rating: 70
Pigweed [2]; [20]
  Plant response rating, Pigweed: 80
Pigweed [2]; [21]
  Plant response rating, Pigweed: 100
Pigweed [2]; [22]
  Plant response rating, Pigweed: 100
Pigweed [2]; [8]
  Pigweed plant response rating: 100
Ragweed [3]; [20]
  Plant response rating, Ragweed: 5
Ragweed [3]; [21]
  Plant response rating, Ragweed: 5
Ragweed [3]; [22]
  Plant response rating, Ragweed: 25
Ragweed [3]; [8]
  Ragweed plant response rating: 70
Oilseed rape [4]; [20]
  Plant response rating, Oilseed Rape: 5
Oilseed rape [4]; [21]
  Plant response rating, Oilseed Rape: 80
Oilseed rape [4]; [22]
  Plant response rating, Oilseed Rape: 95
Oilseed rape [4]; [8]
  Oilseed Rape plant response rating: 95

## CCNC(=O)c1cc(CCF)n(Cc2ccnc(C(F)(F)F)c2)n1 [Compound 178]
Pigweed [1]; preemergence, 125 g ai/ha
  Pigweed plant response rating (0 to 100 scale): 100
Pigweed [1]; [7]
  Pigweed plant response rating: 100
barnyardgrass
  Plant response rating, Barnyardgrass: 20
foxtail, giant; [22]
  Plant response rating, Foxtail, Giant: 5
foxtail, giant; [8]
  Foxtail, Giant plant response rating: 65
foxtail, giant; [9]
  Foxtail, Giant plant response rating: 90
foxtail, giant; [10]
  Plant response rating, Foxtail, Giant: 100
Pigweed [2]; [22]
  Plant response rating, Pigweed: 45
Pigweed [2]; [8]
  Pigweed plant response rating: 100
Pigweed [2]; [9]
  Pigweed plant response rating: 100
Pigweed [2]; [10]
  Plant response rating, Pigweed: 100
Ragweed [3]; [22]
  Plant response rating, Ragweed: 60
Ragweed [3]; [8]
  Ragweed plant response rating: 70
Ragweed [3]; [9]
  Ragweed plant response rating: 85
Ragweed [3]; [10]
  Plant response rating, Ragweed: 90
Oilseed rape [4]; [22]
  Plant response rating, Oilseed Rape: 50
Oilseed rape [4]; [8]
  Oilseed Rape plant response rating: 70
Oilseed rape [4]; [9]
  Oilseed Rape plant response rating: 80
Oilseed rape [4]; [10]
  Plant response rating, Oilseed Rape: 98

## CCCc1cc(C(=O)NOC(C)C)nn1Cc1cc(C(F)(F)F)nn1C [Compound 203]
Pigweed [1]; preemergence, 125 g ai/ha
  Pigweed plant response rating (0 to 100 scale): 100
barnyardgrass
  Plant response rating, Barnyardgrass: 25
foxtail, giant; [8]
  Foxtail, Giant plant response rating: 60
foxtail, giant; [9]
  Foxtail, Giant plant response rating: 98
foxtail, giant; [10]
  Plant response rating, Foxtail, Giant: 100
foxtail, giant; [11]
  Foxtail, Giant plant response rating: 100
Pigweed [2]; [8]
  Pigweed plant response rating: 100
Pigweed [2]; [9]
  Pigweed plant response rating: 100
Pigweed [2]; [10]
  Plant response rating, Pigweed: 100
Pigweed [2]; [11]
  Pigweed plant response rating: 100
Ragweed [3]; [8]
  Ragweed plant response rating: 75
Ragweed [3]; [9]
  Ragweed plant response rating: 80
Ragweed [3]; [10]
  Plant response rating, Ragweed: 98
Ragweed [3]; [11]
  Ragweed plant response rating: 100
Oilseed rape [4]; [8]
  Oilseed Rape plant response rating: 50
Oilseed rape [4]; [9]
  Oilseed Rape plant response rating: 100
Oilseed rape [4]; [10]
  Plant response rating, Oilseed Rape: 100
Oilseed rape [4]; [11]
  Oilseed Rape plant response rating: 100

— US20150105252A1, “SUBSTITUTED PYRAZOLES AS HERBICIDES” (E I DU PONT DE NEMOURS AND COMPANY, priority 2013, published 2015)
